How the values were obtained:
[1] = target: T1, Alpha-1A adrenergic receptor (Homo sapiens, UniProt P35348); format: functional, cell-based
T1 sequence (P35348 whole entry): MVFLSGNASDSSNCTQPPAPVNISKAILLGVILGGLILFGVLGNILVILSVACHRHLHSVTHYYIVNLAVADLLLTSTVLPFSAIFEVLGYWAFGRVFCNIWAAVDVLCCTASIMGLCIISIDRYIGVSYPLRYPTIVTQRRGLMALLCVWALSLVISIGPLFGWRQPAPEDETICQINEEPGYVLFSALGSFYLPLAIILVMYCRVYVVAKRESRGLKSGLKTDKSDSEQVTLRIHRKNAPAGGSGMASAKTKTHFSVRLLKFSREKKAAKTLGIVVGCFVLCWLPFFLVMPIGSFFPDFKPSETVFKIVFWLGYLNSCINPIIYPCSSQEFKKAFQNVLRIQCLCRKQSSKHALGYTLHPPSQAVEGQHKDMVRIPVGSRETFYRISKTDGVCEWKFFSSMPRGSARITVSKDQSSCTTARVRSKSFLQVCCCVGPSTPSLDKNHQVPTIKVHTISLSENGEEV

[2] = target: T1, Alpha-1A adrenergic receptor; format: functional, cell-based; remark: listed apart in the source
[3] = target: Voltage-dependent L-type calcium channel subunit alpha-1C (Rattus norvegicus, UniProt P22002); format: functional
[4] = target: Neuronal acetylcholine receptor subunit alpha-4 (Homo sapiens, UniProt P43681)
Cannabinoid receptor 1 = Cannabinoid receptor 1 (Homo sapiens, UniProt P21554); format: functional, cell-based
[5] = target: Growth hormone secretagogue receptor type 1 (Homo sapiens, UniProt Q92847)
[6] = target: 5-hydroxytryptamine receptor 2B (Homo sapiens, UniProt P41595); format: functional, cell-based
Progesterone receptor = target: T2, Progesterone receptor (Homo sapiens, UniProt P06401); format: functional
T2 sequence (P06401 whole entry): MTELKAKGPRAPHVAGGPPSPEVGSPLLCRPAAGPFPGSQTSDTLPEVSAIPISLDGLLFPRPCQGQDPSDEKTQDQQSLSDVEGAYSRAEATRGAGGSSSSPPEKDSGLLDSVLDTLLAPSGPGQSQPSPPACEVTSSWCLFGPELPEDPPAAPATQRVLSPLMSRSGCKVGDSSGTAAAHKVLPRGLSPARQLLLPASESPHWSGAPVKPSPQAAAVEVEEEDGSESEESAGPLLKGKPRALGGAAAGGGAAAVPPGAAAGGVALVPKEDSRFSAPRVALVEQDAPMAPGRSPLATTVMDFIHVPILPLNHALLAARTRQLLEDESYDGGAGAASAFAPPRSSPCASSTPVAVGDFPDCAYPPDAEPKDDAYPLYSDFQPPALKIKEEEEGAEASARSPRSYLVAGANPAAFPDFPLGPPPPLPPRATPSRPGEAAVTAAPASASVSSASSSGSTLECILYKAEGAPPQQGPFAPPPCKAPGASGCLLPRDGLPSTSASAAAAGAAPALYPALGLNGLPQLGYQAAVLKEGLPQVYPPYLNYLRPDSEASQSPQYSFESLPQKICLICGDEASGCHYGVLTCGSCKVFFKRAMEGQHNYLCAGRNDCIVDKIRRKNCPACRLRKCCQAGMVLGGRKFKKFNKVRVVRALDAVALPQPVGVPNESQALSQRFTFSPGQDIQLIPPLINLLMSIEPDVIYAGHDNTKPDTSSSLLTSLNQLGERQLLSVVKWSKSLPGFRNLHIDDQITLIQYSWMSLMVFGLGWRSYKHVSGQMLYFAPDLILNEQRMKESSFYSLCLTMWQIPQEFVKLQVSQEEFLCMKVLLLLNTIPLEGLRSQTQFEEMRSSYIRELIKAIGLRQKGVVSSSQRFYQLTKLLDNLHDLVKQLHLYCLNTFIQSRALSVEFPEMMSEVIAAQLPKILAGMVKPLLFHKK

[7] = target: T3, Prostaglandin G/H synthase 1 (Rattus norvegicus, UniProt Q63921); format: functional
T3 sequence (Q63921 whole entry): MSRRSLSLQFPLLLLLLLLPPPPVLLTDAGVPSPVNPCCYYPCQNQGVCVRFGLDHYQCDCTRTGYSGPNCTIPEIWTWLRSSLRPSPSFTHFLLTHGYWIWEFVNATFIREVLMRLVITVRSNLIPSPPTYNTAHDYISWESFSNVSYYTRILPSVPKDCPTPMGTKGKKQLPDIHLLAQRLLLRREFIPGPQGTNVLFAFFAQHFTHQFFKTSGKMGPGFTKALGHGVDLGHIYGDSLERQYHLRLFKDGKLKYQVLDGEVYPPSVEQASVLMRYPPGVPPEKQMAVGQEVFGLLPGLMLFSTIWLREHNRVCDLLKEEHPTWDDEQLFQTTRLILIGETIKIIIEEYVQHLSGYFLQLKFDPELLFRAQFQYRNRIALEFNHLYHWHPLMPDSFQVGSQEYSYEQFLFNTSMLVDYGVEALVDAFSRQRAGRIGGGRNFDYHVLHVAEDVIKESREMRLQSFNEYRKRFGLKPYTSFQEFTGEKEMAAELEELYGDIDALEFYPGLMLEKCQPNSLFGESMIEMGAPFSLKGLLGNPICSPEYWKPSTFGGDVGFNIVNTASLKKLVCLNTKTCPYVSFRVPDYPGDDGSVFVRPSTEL

[8] = target: Sodium-dependent dopamine transporter (Homo sapiens, UniProt Q01959)
D(3) dopamine receptor = D(3) dopamine receptor (Homo sapiens, UniProt P35462)
[9] = target: T1, Alpha-1A adrenergic receptor; format: functional, cell-based; remark: listed apart in the source
Note: assay procedure not described here.

D(3) dopamine receptor, sequence (P35462 whole entry): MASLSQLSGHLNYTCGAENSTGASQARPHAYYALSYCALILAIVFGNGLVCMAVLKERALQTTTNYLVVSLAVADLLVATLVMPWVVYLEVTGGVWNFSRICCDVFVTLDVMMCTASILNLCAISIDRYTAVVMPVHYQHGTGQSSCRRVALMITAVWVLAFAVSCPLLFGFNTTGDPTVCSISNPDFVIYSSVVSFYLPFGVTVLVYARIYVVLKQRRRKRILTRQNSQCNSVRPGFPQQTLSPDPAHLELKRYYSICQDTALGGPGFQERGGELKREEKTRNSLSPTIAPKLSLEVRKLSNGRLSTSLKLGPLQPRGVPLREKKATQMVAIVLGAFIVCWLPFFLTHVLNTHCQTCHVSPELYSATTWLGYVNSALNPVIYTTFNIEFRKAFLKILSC
5-hydroxytryptamine receptor 2B, sequence (P41595 whole entry): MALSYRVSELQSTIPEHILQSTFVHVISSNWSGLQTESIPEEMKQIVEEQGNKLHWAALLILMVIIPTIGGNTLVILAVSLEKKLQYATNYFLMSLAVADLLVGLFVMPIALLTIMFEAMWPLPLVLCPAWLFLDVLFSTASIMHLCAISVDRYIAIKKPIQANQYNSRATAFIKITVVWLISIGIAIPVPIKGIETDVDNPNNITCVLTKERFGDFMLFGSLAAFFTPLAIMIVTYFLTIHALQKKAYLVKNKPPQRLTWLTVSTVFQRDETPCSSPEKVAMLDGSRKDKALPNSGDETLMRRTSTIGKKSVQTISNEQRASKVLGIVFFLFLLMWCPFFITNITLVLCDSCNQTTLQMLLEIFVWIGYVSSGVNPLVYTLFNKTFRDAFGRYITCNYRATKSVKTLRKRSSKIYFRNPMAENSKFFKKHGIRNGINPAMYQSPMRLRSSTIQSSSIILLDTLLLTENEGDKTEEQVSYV
Neuronal acetylcholine receptor subunit alpha-4, sequence (P43681 whole entry): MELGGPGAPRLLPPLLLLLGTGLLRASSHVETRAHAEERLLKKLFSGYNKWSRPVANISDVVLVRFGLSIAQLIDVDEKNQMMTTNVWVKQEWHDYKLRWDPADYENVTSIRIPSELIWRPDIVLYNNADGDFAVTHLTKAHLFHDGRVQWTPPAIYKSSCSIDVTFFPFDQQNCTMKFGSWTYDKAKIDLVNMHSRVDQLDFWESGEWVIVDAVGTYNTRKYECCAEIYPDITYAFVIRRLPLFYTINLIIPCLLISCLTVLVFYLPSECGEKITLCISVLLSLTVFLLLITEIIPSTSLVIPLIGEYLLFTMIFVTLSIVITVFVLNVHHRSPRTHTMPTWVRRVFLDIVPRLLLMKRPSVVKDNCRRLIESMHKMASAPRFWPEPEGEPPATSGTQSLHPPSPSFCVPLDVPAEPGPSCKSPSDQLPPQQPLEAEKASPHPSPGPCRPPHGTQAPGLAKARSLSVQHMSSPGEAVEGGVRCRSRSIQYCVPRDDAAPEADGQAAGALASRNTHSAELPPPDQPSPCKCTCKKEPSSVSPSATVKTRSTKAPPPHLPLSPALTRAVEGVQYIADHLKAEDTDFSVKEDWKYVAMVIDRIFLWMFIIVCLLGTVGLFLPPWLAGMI
Growth hormone secretagogue receptor type 1, sequence (Q92847 whole entry): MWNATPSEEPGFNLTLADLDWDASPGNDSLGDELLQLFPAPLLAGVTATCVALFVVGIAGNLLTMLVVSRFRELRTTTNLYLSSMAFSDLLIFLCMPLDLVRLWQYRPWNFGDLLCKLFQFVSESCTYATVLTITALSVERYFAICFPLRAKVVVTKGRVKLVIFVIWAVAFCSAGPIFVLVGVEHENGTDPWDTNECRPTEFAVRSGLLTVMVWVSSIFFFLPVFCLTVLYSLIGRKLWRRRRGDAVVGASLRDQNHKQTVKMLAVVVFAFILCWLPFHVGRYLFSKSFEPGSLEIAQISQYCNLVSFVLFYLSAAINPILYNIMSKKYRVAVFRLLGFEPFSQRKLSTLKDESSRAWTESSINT
Cannabinoid receptor 1, sequence (P21554 whole entry): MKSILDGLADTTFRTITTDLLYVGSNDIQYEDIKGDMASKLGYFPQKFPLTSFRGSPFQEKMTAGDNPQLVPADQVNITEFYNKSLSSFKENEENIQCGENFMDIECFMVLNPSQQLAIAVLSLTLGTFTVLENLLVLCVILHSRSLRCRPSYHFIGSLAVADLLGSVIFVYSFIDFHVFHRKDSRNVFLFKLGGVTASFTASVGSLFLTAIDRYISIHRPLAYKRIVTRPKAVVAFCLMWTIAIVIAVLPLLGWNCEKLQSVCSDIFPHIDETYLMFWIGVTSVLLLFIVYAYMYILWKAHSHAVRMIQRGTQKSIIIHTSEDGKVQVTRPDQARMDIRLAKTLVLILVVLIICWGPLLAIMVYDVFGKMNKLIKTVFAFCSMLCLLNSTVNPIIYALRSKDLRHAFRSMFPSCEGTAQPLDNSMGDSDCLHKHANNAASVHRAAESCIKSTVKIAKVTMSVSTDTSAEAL
Voltage-dependent L-type calcium channel subunit alpha-1C, sequence (P22002 whole entry): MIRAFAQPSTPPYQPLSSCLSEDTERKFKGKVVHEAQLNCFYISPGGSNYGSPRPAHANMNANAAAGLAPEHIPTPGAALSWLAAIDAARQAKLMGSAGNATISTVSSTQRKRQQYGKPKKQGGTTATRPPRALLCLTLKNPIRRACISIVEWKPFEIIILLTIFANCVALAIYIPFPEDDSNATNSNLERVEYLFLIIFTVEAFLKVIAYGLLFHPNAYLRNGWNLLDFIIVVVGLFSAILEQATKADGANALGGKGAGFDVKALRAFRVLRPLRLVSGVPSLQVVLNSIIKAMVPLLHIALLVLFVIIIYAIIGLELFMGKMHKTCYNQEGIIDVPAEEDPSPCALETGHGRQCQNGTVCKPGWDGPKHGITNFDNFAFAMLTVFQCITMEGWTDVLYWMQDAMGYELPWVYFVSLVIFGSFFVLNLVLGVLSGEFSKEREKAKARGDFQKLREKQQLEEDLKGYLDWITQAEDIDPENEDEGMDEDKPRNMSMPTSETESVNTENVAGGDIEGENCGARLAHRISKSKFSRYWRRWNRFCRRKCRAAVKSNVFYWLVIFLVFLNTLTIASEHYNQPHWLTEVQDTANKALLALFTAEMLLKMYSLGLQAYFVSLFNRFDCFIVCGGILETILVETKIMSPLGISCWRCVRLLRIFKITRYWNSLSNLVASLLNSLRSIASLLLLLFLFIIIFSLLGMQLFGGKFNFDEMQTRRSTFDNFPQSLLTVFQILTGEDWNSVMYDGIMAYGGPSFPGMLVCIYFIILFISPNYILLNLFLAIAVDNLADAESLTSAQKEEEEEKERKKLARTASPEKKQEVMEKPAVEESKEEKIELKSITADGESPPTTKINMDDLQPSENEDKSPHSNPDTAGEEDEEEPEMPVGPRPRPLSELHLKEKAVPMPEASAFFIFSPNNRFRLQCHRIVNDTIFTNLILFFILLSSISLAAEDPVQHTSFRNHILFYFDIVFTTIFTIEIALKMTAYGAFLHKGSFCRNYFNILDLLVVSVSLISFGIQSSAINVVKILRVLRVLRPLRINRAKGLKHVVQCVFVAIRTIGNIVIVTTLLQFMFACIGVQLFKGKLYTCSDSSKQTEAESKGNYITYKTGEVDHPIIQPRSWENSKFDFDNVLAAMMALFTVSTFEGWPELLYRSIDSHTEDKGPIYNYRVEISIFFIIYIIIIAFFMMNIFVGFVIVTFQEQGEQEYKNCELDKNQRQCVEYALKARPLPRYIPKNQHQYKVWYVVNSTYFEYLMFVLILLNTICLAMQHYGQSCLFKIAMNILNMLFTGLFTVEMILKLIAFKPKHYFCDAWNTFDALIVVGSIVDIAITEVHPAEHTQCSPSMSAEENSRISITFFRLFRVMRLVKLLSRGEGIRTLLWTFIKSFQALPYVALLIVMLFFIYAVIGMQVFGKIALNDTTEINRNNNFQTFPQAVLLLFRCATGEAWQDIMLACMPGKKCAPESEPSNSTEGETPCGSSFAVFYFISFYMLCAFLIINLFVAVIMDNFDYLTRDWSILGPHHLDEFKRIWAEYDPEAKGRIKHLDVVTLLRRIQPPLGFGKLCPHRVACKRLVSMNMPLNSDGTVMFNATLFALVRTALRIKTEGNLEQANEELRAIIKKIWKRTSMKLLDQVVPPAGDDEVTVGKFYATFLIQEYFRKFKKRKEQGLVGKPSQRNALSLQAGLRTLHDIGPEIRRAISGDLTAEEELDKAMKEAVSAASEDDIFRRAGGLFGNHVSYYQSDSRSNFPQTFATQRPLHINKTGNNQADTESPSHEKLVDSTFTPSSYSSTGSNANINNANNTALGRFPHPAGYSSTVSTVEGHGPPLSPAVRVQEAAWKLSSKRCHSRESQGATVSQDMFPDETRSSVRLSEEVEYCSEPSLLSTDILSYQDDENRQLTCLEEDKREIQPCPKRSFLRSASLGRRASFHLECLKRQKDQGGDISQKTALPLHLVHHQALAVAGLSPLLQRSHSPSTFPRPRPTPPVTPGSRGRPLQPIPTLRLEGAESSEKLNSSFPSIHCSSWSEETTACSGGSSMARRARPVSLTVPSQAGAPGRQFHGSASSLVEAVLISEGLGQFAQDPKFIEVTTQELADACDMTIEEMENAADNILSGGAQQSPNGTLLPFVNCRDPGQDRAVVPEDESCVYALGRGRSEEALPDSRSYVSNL

O=C(O)c1cc(/N=N/c2ccc(O)c(C(=O)O)c2)ccc1O [OLSALAZINE]
AC50 [1]: > 30 µM

FC(F)(F)c1ccc(CNc2ccc(Cc3c[nH]c4ncc(Cl)cc34)cn2)cn1 [PEXIDARTINIB]
AC50 [1]: > 30 µM

CC(C)C[C@H](NC(=O)CNC(=O)c1cc(Cl)ccc1Cl)B(O)O [IXAZOMIB]
AC50 [1]: > 30 µM

CC(CN1CC(=O)NC(=O)C1)N1CC(=O)NC(=O)C1 (stereo not drawn) [RAZOXANE]
AC50 [1]: > 30 µM

O=C1/C(=C2\Nc3ccc(S(=O)(=O)O)cc3C2=O)Nc2ccc(S(=O)(=O)O)cc21 [INDIGOTINDISULFONATE]
AC50 [1]: > 30 µM

OC[C@H]1O[C@@H](c2ccc(F)c(Cc3cc4ccccc4s3)c2)[C@H](O)[C@@H](O)[C@@H]1O [IPRAGLIFLOZIN]
AC50 [1]: > 30 µM

CCn1cc(C(=O)O)c(=O)c2cc3c(cc21)OCO3 [OXOLINIC ACID]
AC50 [1]: > 30 µM

CC[C@H](c1ccc(O)cc1)[C@@H](CC)c1ccc(O)cc1 [HEXESTROL]
AC50 [1]: 25.9 µM

CCOC(=O)C1=C[C@@H](OC(CC)CC)[C@H](NC(C)=O)[C@@H](N)C1 [OSELTAMIVIR]
AC50 [1]: > 30 µM

CN1CCC(=C2c3ccccc3Sc3ccccc32)CC1 [PIMETHIXENE]
AC50 [1]: > 30 µM

COc1ccccc1OCCNCC(O)COc1cccc2[nH]c3ccccc3c12 (stereo not drawn) [CARVEDILOL]
AC50 [2]: > 30 µM | AC50 [3]: > 10 µM | AC50 [4]: > 30 µM | AC50 (Cannabinoid receptor 1): > 30 µM | AC50 [5]: 14.1 µM | AC50 [6]: > 30 µM | AC50 (Progesterone receptor): > 30 µM | AC50 [7]: > 30 µM | AC50 [8]: 4.53 µM | AC50 (D(3) dopamine receptor): 0.47 µM | AC50 [9]: 0.3 µM

C[C@H]1O[C@@H](n2cc(F)c(=O)[nH]c2=O)[C@H](O)[C@@H]1O [DOXIFLURIDINE]
AC50 [1]: > 30 µM

C[C@@H](NCCCc1cccc(C(F)(F)F)c1)c1cccc2ccccc12
AC50 [2]: > 30 µM | AC50 [4]: > 1 µM | AC50 (Cannabinoid receptor 1): > 30 µM | AC50 [5]: 10 µM | AC50 [6]: > 30 µM | AC50 (Progesterone receptor): > 30 µM | AC50 [7]: > 30 µM | AC50 [8]: 6.4 µM | AC50 (D(3) dopamine receptor): 1.5 µM | AC50 [9]: > 30 µM

CCc1nc(C(N)=O)c(Nc2ccc(N3CCC(N4CCN(C)CC4)CC3)c(OC)c2)nc1NC1CCOCC1 [GILTERITINIB]
AC50 [1]: > 30 µM

CC[C@H]1OC(=O)[C@H](C)C(=O)[C@H](C)[C@@H](O[C@@H]2O[C@H](C)C[C@H](N(C)C)[C@H]2O)[C@](C)(OC)C[C@@H](C)C(=O)[C@H](C)[C@H]2N(CCCCn3cnc(-c4cccnc4)c3)C(=O)O[C@]12C [TELITHROMYCIN]
AC50 [1]: > 30 µM

CN1CCCCC1CCN1c2ccccc2Sc2ccc([S+](C)[O-])cc21 (stereo not drawn) [MESORIDAZINE]
AC50 [1]: > 30 µM

N[C@@H](CO)C(=O)O [SERINE]
AC50 [1]: > 30 µM

OC[C@H]1O[C@@H](c2ccc(Cl)c(Cc3ccc(O[C@H]4CCOC4)cc3)c2)[C@H](O)[C@@H](O)[C@@H]1O [EMPAGLIFLOZIN]
AC50 [1]: > 30 µM

CC(=O)Oc1cc(C(F)(F)F)ccc1C(=O)O [TRIFLUSAL]
AC50 [1]: > 30 µM

[H]/N=C(\N/C(=N/[H])Nc1ccc(Cl)cc1)NC(C)C [PROGUANIL]
AC50 [1]: > 30 µM

CN1C[C@H](C(=O)N[C@]2(C)O[C@@]3(O)[C@@H]4CCCN4C(=O)[C@H](Cc4ccccc4)N3C2=O)C=C2c3cccc4[nH]cc(c34)C[C@H]21 [ERGOTAMINE]
AC50 [2]: 3.1 µM | AC50 [4]: > 30 µM | AC50 (Cannabinoid receptor 1): > 30 µM | AC50 [5]: > 30 µM | AC50 [6]: > 10 µM | AC50 (Progesterone receptor): > 30 µM | AC50 [7]: 26 µM | AC50 [8]: > 30 µM | AC50 (D(3) dopamine receptor): 1.6 µM

C[C@@H]1C[C@H]2[C@@H]3CCC4=CC(=O)C=C[C@]4(C)[C@@]3(Cl)[C@@H](O)C[C@]2(C)[C@@]1(OC(=O)c1ccco1)C(=O)CCl [MOMETASONE FUROATE]
AC50 [1]: > 30 µM

CNC(=O)Oc1cccc2ccccc12 [CARBARIL]
AC50 [1]: > 30 µM

CCN(CC)CCNC(=O)c1c(C)[nH]c(/C=C2\C(=O)Nc3ccc(F)cc32)c1C [SUNITINIB]
AC50 [3]: > 30 µM | AC50 [4]: 7.3 µM | AC50 (Cannabinoid receptor 1): > 30 µM | AC50 [5]: 7.2 µM | AC50 [6]: > 30 µM | AC50 (Progesterone receptor): 1.7 µM | AC50 [7]: > 30 µM | AC50 (D(3) dopamine receptor): 1.94 µM

N[C@@H](CS)C(=O)O [CYSTEINE]
AC50 [1]: > 30 µM

C/C=C/C/C=C/CCC(=O)[C@H]1O[C@H]1C(N)=O [CERULENIN]
AC50 [1]: > 30 µM

O=C1CCc2cc(OCCCCc3nnnn3C3CCCCC3)ccc2N1 [CILOSTAZOL]
AC50 [2]: > 30 µM | AC50 [3]: > 30 µM | AC50 [4]: > 30 µM | AC50 (Cannabinoid receptor 1): > 30 µM | AC50 [5]: > 30 µM | AC50 [6]: > 30 µM | AC50 (Progesterone receptor): > 30 µM | AC50 [7]: > 30 µM | AC50 [8]: > 30 µM | AC50 (D(3) dopamine receptor): > 30 µM | AC50 [9]: > 30 µM

COc1ccc(CC2c3cc(OC)c(OC)cc3CC[N+]2(C)CCC(=O)OCCCCCOC(=O)CC[N+]2(C)CCc3cc(OC)c(OC)cc3C2Cc2ccc(OC)c(OC)c2)cc1OC (stereo not drawn)
AC50 [2]: > 30 µM | AC50 [3]: > 30 µM | AC50 [4]: 3.63 µM | AC50 [5]: 11.2 µM | AC50 [6]: > 30 µM | AC50 (Progesterone receptor): > 30 µM | AC50 [7]: > 30 µM | AC50 [8]: > 30 µM | AC50 (D(3) dopamine receptor): > 30 µM | AC50 [9]: 12 µM

C=C[C@H]1C[N@@]2CC[C@H]1C[C@@H]2[C@@H](O)c1ccnc2ccc(OC)cc12 [QUINIDINE]
AC50 (Cannabinoid receptor 1): > 30 µM | AC50 [5]: > 30 µM | AC50 [6]: 1.16 µM | AC50 [7]: > 30 µM | AC50 [8]: 9.56 µM | AC50 (D(3) dopamine receptor): 2.8 µM

Cc1ccccc1C(=O)Nc1ccc(C(=O)N2CCCC(N(C)C)c3ccccc32)cc1 (stereo not drawn) [MOZAVAPTAN]
AC50 [1]: > 30 µM

C[C@]1(Cn2ccnn2)[C@H](C(=O)O)N2C(=O)C[C@H]2S1(=O)=O [TAZOBACTAM]
AC50 [1]: > 30 µM

CN(C)[C@@H]1C(O)=C(C(N)=O)C(=O)[C@@]2(O)C(O)=C3C(=O)c4c(O)ccc(Cl)c4[C@@](C)(O)[C@H]3C[C@@H]12 [CHLORTETRACYCLINE]
AC50 [1]: > 30 µM

C[N+](C)(C)C[C@H](O)CC(=O)[O-] [LEVOCARNITINE]
AC50 [1]: > 30 µM

CC(C)OC(=O)CCC/C=C\C[C@@H]1[C@@H](/C=C/C(F)(F)COc2ccccc2)[C@H](O)C[C@@H]1O [TAFLUPROST]
AC50 [1]: > 30 µM

CC1=C(/C=C/C(C)=C/C=C/C(C)=C/C(=O)O)C(C)(C)CCC1 [TRETINOIN]
AC50 [1]: > 30 µM

CC(C)(C)NCC(O)c1cc(O)cc(O)c1 (stereo not drawn) [TERBUTALINE]
AC50 [4]: > 30 µM | AC50 [5]: > 30 µM | AC50 (Progesterone receptor): > 30 µM | AC50 [7]: > 30 µM | AC50 [8]: > 30 µM

CN(C)CCc1c[nH]c2ccc(Cn3cncn3)cc12 [RIZATRIPTAN]
AC50 [2]: > 30 µM | AC50 [3]: > 10 µM | AC50 [4]: > 10 µM | AC50 (Cannabinoid receptor 1): > 30 µM | AC50 [5]: > 30 µM | AC50 [6]: 14 µM | AC50 [7]: > 30 µM | AC50 [8]: > 10 µM | AC50 (D(3) dopamine receptor): > 30 µM | AC50 [9]: > 30 µM

From ChEMBL document CHEMBL5291721, “A preclinical secondary pharmacology resource illuminates target-adverse drug reaction associations of marketed drugs” (Nat Commun, 2023)
